For series [1], the system named is Factor VII. The series is described as follows: In vivo determination of efficacy of novel lipid formulations (FVII knockdown, ED50). Further details: species or system C57Bl/6 mice. To be noted: dose resulting in a 50% reduction in plasma FVII levels compared to control animals; FVII siRNA in cationic lipid/DSPC/cholesterol/PEG-lipid 40/10/40/10; intravenous, 24 h. Here is the method: Cationic lipid containing particles were made using the preformed vesicle method. Cationic lipid, DSPC, cholesterol and PEG-lipid were solubilised in ethanol at a molar ratio of 40/10/40/10, respectively. The lipid mixture was added to an aqueous buffer (50 mM citrate, pH 4) with mixing to a final ethanol and lipid concentration of 30% (vol/vol) and 6.1 mg/mL respectively and allowed to equilibrate at room temperature for 2 min before extrusion. The hydrated lipids were extruded through two stacked 80 nm pore-sized filters (Nuclepore) at 22° C. using a Lipex Extruder (Northern Lipids, Vancouver, BC) until a vesicle diameter of 70-90 nm, as determined by Nicomp analysis, was obtained. This generally required 1-3 passes.
The FVII siRNA (solubilised in a 50 mM citrate, pH 4 aqueous solution containing 30% ethanol) was added to the vesicles, pre-equilibrated to 35° C., at a rate of […] with mixing. After a final target siRNA/lipid ratio of 0.06 (wt/wt) was achieved, the mixture was incubated for a further 30 min at 35° C. to allow vesicle re-organization and encapsulation of the FVII siRNA. The ethanol was then removed and the external buffer replaced with PBS (155 mM NaCl, 3 mM Na2HPO4, 1 mM KH2PO4, pH 7.5) by either dialysis or tangential flow diafiltration. The final encapsulated siRNA-to-lipid ratio was determined after removal of unencapsulated siRNA using size-exclusion spin columns or ion exchange spin columns.
Test formulations were initially assessed for their FVII knockdown in female 7-9 week old, 15-25 g, female C57Bl/6 mice at 0.1, 0.3, 1.0 and 5.0 mg/kg with 3 mice per treatment group. All studies included animals receiving either phosphate-buffered saline (PBS, Control group) or a benchmark formulation. Formulations were diluted to the appropriate concentration in PBS immediately prior to testing. Mice were weighed and the appropriate dosing volumes calculated (10 μl/g body weight). Test and benchmark formulations as well as PBS (for Control animals) were administered intravenously via the lateral tail vein. Animals were anesthetised 24 h later with an intraperitoneal injection of Ketamine/Xylazine and 500-700 μl of blood was collected by cardiac puncture into serum separator tubes (BD Microtainer). Blood was centrifuged at 2,000×g for 10 min at 15° C. and serum was collected and stored at −70° C. until analysis. Serum samples were thawed at 37° C. for 30 min, diluted in PBS and aliquoted into 96-well assay plates. Factor VII levels were assessed using a chromogenic assay (Biophen FVII kit, Hyphen BioMed) according to manufacturer's instructions and absorbance measured in microplate reader equipped with a 405 nm wavelength filter. Plasma FVII levels were quantified and ED50s (dose resulting in a 50% reduction in plasma FVII levels compared to control animals) calculated using a standard curve generated from a pooled sample of serum from Control animals. Those formulations of interest showing high levels of FVII knockdown (ED50<<0.1 mg/kg) were re-tested in independent studies at a lower dose range to confirm potency and establish ED50.

The nature of series [2]: Determination of pKa of formulated lipids (TNS fluorescence). The class given is physicochemical. To be noted: probe 2-(p-toluidino)-6-naphthalenesulfonic acid (TNS), 1 µM final, vesicles of cationic lipid/DSPC/CH/PEG-c-DOMG 40:10:40:10, pH 2 to 11.
Description: The pKa's of the different ionisable cationic lipids were determined essentially as described (Eastman et al 1992 Biochemistry 31:4262-4268) using the fluorescent probe 2-(p-toluidino)-6-naphthalenesulfonic acid (TNS), which is non-fluorescent in water but becomes appreciably fluorescent when bound to membranes. Vesicles composed of cationic lipid/DSPC/CH/PEG-c-DOMG (40:10:40:10 mole ratio) were diluted to 0.1 mM in buffers (130 mM NaCl, 10 mM CH3COONH4, 10 mM MES, 10 mM HEPES) of various pH's, ranging from 2 to 11. An aliquot of the TNS aqueous solution (1 μM final) was added to the diluted vesicles and after a 30 second equilibration period the fluorescent of the TNS-containing solution was measured at excitation and emission wavelengths of 321 nm and 445 nm, respectively. The pKa of the cationic lipid-containing vesicles was determined by plotting the measured fluorescence against the pH of the solutions and fitting the data to a Sigmodial curve using the commercial graphing program IgorPro.
Series [3] relates to Factor VII. Description: In vivo evaluation of FVII siRNA 1661 using cyclic cationic lipid based formulations (FVII assay). Further details: species or system rodent. The note with it: lipid particles with FVII siRNA 1661. Here is the method: C57BL/6 mice (Charles River Labs, MA) and Sprague-Dawley rats (Charles River Labs, MA) received either saline or siRNA in desired formulations via tail vein injection at a volume of 0.01 mL/g. At various time points post-administration, animals were anesthesized by isofluorane inhalation and blood was collected into serum separator tubes by retro orbital bleed. Serum levels of Factor VII protein were determined in samples using a chromogenic assay (Coaset Factor VII, DiaPharma Group, OH or Biophen FVII, Aniara Corporation, OH) according to manufacturer protocols. A standard curve was generated using serum collected from saline treated animals. In experiments where liver mRNA levels were assessed, at various time points post-administration, animals were sacrificed and livers were harvested and snap frozen in liquid nitrogen. Frozen liver tissue was ground into powder. Tissue lysates were prepared and liver mRNA levels of Factor VII and apoB were determined using a branched DNA assay (QuantiGene Assay, Panomics, Calif.).
The cyclic cationic lipids 506, 512 and 519-based formulations as described below were prepared, characterized and evaluated in vivo by FVII assay.

Each structure is given as a SMILES string.

From patent US20180064807A1, “NOVEL LIPIDS AND COMPOSITIONS FOR THE DELIVERY OF THERAPEUTICS” (Arbutus Biopharma Corporation, priority 2008, published 2018) come the findings set out here.

As a reminder, the ED50 is the midpoint of the dose-response relation. The term pKa denotes the pH at which an ionisable group is half protonated.

In the series with Factor VII [1], `CCCCC/C=C\C/C=C\CCCCCCCCC1(CCCCCCCC/C=C\C/C=C\CCCCC)O[C@H]2C[C@H](N(C)C)C[C@H]2O1` [ALNY-100] yielded a 50% effective dose (ED50) of 0.3 mg/kg. In series [2], this compound had a pKa of 6.4. The corresponding values for `CCCCC/C=C\C/C=C\CCCCCCCCC1(CCCCCCCC/C=C\C/C=C\CCCCC)O[C@H]2C[C@@H](N(C)C)C[C@H]2O1` [ALNY-101] are 0.1 mg/kg and 6.43. For `CCCCC/C=C\C/C=C\CCCCCCCCC1(CCCCCCCC/C=C\C/C=C\CCCCC)O[C@H]2C[C@@H](N(C)C)CC[C@H]2O1` [ALNY-102] the same measures were 2.0 mg/kg and 7.3. For `CCCCC/C=C\C/C=C\CCCCCCCCC1(CCCCCCCC/C=C\C/C=C\CCCCC)O[C@H]2C[C@H](N(C)C)CC[C@H]2O1` [ALNY-103] the same measures were 2.5 mg/kg and 6.98. For the compound `CCCCC/C=C\C/C=C\CCCCCCCCC1(CCCCCCCC/C=C\C/C=C\CCCCC)O[C@H]2CN(C)C[C@H]2O1` [ALNY-104], the ED50 with Factor VII [1] was 2.5 mg/kg. Further, the pKa in series [2] stood at 5.65. For `CCCCC/C=C\C/C=C\CCCCCCCCC1(CCCCCCCC/C=C\C/C=C\CCCCC)O[C@H]2CCN(C)C[C@H]2O1` [ALNY-105] the same measures were 1.5 mg/kg and 5.6. For `CCCCC/C=C\C/C=C\CCCCCCCCC1(CCCCCCCC/C=C\C/C=C\CCCCC)O[C@H]2CCN(C)CC[C@H]2O1` [ALNY-106] the same measures were 0.3 mg/kg and 6.85. The corresponding values for `CCCCC/C=C\C/C=C\CCCCCCCCC1(CCCCCCCC/C=C\CCCCCCCC)O[C@H]2C[C@H](N(C)C)C[C@H]2O1` (stereo partly drawn) [ALNY-107] are 0.25 mg/kg and 6.63. `CCCCC/C=C\C/C=C\CCCCCCCCC1(CCCCCCCCCCCCCCCCCC)O[C@H]2C[C@H](N(C)C)C[C@H]2O1` (stereo partly drawn) [ALNY-108] had an ED50 with Factor VII [1] of 0.75 mg/kg. Also, in series [2], the pKa is 6.55. For `CCCCC/C=C\C/C=C\CCCCCCCCC1(CCCCCCCCCCCC)O[C@H]2C[C@H](N(C)C)C[C@H]2O1` (stereo partly drawn) [ALNY-109] the same measures were 2.0 mg/kg and 6.75. The corresponding values for `CCCCC/C=C\C/C=C\CCCCCCCCC1(CCCCCCCCCC)O[C@H]2C[C@H](N(C)C)C[C@H]2O1` (stereo partly drawn) [ALNY-110] are 2.0 mg/kg and 6.5.

`CCCCC/C=C\C/C=C\CCCCCCCCC1(CCCCCCCC/C=C\C/C=C\CCCCC)O[C@H]2C[C@@H](CN(C)C)C[C@H]2O1` [ALNY-115] yielded an ED50 with Factor VII [1] of 1.0 mg/kg. On the same count and under the same terms, next, `CCCCC/C=C\C/C=C\CCCCCCCCC1(CCCCCCCC/C=C\C/C=C\CCCCC)O[C@H]2C[C@H](CN(C)C)C[C@H]2O1` [ALNY-116]: 1.0 mg/kg; `CCCCC/C=C\C/C=C\CCCCCCCCO[C@H]1C[C@H](N(C)C)C[C@H]1OCCCCCCCC/C=C\C/C=C\CCCCC` [ALNY-117]: over 5.0 mg/kg.

In the series with Factor VII [1], `CCCCC/C=C\C/C=C\CCCCCCCCC1(CCCCCCCC/C=C\C/C=C\CCCCC)O[C@H]2CC[C@@H](CN(C)C)C[C@H]2O1` [ALNY-121] showed an ED50 of 0.5 mg/kg. The compound further returned a pKa in series [2] of 6.6. In the series with Factor VII [1], `CCCCC/C=C\C/C=C\CCCCCCCCC1(CCCCCCCC/C=C\C/C=C\CCCCC)O[C@H]2CC[C@H](CN(C)C)C[C@H]2O1` [ALNY-122] showed an ED50 of 0.55 mg/kg. Turning to `CCCCC/C=C\C/C=C\CCCCCCCCC1(CCCCCCCC/C=C\C/C=C\CCCCC)OCC(CCN(C)Cc2cccnc2)O1` (stereo not drawn) [ALNY-140], the ED50 with Factor VII [1] is recorded as over 5.0 mg/kg. In addition, in series [2], the pKa came out at 4.95. The compound `CCCCC/C=C\C/C=C\CCCCCCCCC(CCCCCCCC/C=C\C/C=C\CCCCC)CN(C)CCN(C)C` [ALNY-141] returned an ED50 in the series with Factor VII [1] of 0.14 mg/kg. Besides, the pKa in series [2] was found to be 6.62. In turn, `CCCCC/C=C\C/C=C\CCCCCCCCC1(CCCCCCCC/C=C\C/C=C\CCCCC)O[C@H]2COC(CN(C)C)[C@H]2O1` (stereo partly drawn) [ALNY-144] came in with an ED50 with Factor VII [1] of 0.60 mg/kg. Take `CCCCC/C=C\C/C=C\CCCCCCCCC1(CCCCCCCC/C=C\C/C=C\CCCCC)OCC2(CCN(C)CC2)O1` [ALNY-148]: the 50% effective dose (ED50) in the series on Factor VII [1] came to 0.3 mg/kg. The compound further returned a pKa in series [2] of 6.53. The corresponding values for `CCCCC/C=C\C/C=C\CCCCCCCCC(CCCCCCCC/C=C\C/C=C\CCCCC)ON=C(C)CCN(C)C` [ALNY-149] are 0.1 mg/kg and 5.81. For `CCCCC/C=C\C/C=C\CCCCCCCCC1(CCCCCCCC/C=C\C/C=C\CCCCC)O[C@H]2[C@@H](OC)OC(CN(C)C)[C@H]2O1` (stereo partly drawn) [ALNY-151] the same measures were over 5.00 mg/kg and 5.5. As for `CCCCC/C=C\C/C=C\CCCCCCCC1OC(C)(CCN(C)C)OC1CCCCCCC/C=C\C/C=C\CCCCC` (stereo not drawn) [ALNY-152], the median effective dose (ED50) with Factor VII [1] is 0.15 mg/kg. In series [2], this compound showed a pKa of 6.6. `CCCCC/C=C\C/C=C\CCCCCCCC1OC2(CCN(C)CC2)OC1CCCCCCC/C=C\C/C=C\CCCCC` (stereo not drawn) [ALNY-156] came in with a pKa in series [2] of 6.08. In turn, `CCCCC/C=C\C/C=C\CCCCCCCC1OC2(CCC(N(C)C)CC2)OC1CCCCCCC/C=C\C/C=C\CCCCC` (stereo not drawn) [ALNY-158] yielded a median effective dose (ED50) in the series with Factor VII [1] of 1.40 mg/kg. For the compound `CCCCC/C=C\C/C=C\CCCCCCCCC(CCCCCCCC/C=C\C/C=C\CCCCC)SSCCN(C)C` [ALNY-160], the ED50 in the series with Factor VII [1] is recorded as 2.00 mg/kg. Moreover, the pKa in series [2] came out at 5.18. Consider `CCCCC/C=C\C/C=C\CCCCCCCCC1(CCCCCCCC/C=C\C/C=C\CCCCC)O[C@@H]2CC[C@H](N(C)C)C[C@H]2O1` [ALNY-169], for which, in the series with Factor VII [1], the 50% effective dose (ED50) is 2.60 mg/kg.

The compound `CCCCC/C=C\C/C=C\CCCCCCCCC(CCCCCCCC/C=C\C/C=C\CCCCC)=NNCCN(C)C` [ALNY-175] displayed an ED50 with Factor VII [1] of 2.7 mg/kg. `CCCCC/C=C\C/C=C\CCCCCCCCC(CCCCCCCC/C=C\C/C=C\CCCCC)OC(=O)NCCN(C)C` [ALNY-190]: the ED50 in the series on Factor VII [1] is recorded as 0.47 mg/kg. Further, the pKa in series [2] stood at 6.49. The compound `CCCCC/C=C\C/C=C\CCCCCCCCC(CCCCCCCC/C=C\C/C=C\CCCCC)NC(=O)OCCCN(C)C` [ALNY-192] yielded a median effective dose (ED50) with Factor VII [1] of 2.1 mg/kg. This compound showed a pKa in series [2] of 7.21. The corresponding values for `CCCCC/C=C\C/C=C\CCCCCCCCC(CCCCCCCC/C=C\C/C=C\CCCCC)CNC(=O)OCCCN(C)C` [ALNY-200] are over 5.00 mg/kg and 7.57. Compound `CCCCC/C=C\C/C=C\CCCCCCCCC(CCCCCCCC/C=C\C/C=C\CCCCC)CNC(=O)CCN(C)C` [ALNY-201, 3-(dimethylamino)-N-((11Z,14Z)-2-((9Z,12Z)-octadeca-9,12-dienyl)icosa-11,14-dienyl)propanamide] registered an ED50 with Factor VII [1] of over 5.0 mg/kg. Moreover, in series [2], the pKa was determined as 8.02. The corresponding values for `CCCCC/C=C\C/C=C\CCCCCCCCC(CCCCCCCC/C=C\C/C=C\CCCCC)NC(=O)OCCN(C)C` [ALNY-202] are 0.12 mg/kg and 6.52. The corresponding values for `CCCCC/C=C\C/C=C\CCCCCCCCC(CCCCCCCC/C=C\C/C=C\CCCCC)CNC(=O)OCCN(C)C` [ALNY-203] are 5.0 mg/kg and 7.07. Consider `CCCCC/C=C\C/C=C\CCCCCCCCC1(CCCCCCCC/C=C\C/C=C\CCCCC)O[C@H]2C[C@@H](N(C)C)C[C@H]2O1` [Compound 519], for which the “knockdown of FVII protein levels in vivo” value with Factor VII [3] was “almost complete knockdown”.
